Data: patent US5094783A, “Retinoid compounds” (UAB Research Foundation, priority 1990, dated 1992)

Experiments:
[1] = test system: ornithine decarboxylase (ODC) induced by TPA in mouse epidermis; assay: In vivo ODC assay: inhibition of TPA-induced ornithine decarboxylase activity in mouse epidermis; settings: TPA-induced ODC activity in epidermis of CD-1 mice, single topical application of retinoid 30 to 60 min before TPA, skins collected 5 h after TPA; values normalized to TPA control of 10; X=CO2H
Method: An in vivo ODC assay was conducted using four configurational isomers of retinoid 7 with X=CO2 H to study their bioactivities with respect to prevention of tumors. The ODC assay measured the inhibition by retinoids of the induction of ornithine decarboxylase in mouse epidermis by phorbol ester (TPA), an indicator of retinoid potency as a chemopreventive agent.
A single application of TPA was made to the shaved backs of CD-1 mice 30 to 60 minutes after a single application of the test retinoid. Five hours after the application of TPA, the exposed skins from the back of the three animals in each group were collected, and the epidermal extracts prepared from each animal were pooled and assayed. In order to improve the counting efficiency of radio-labeled product formed in the assay, the specific activity of ^14 C-ornithine was increased five-fold; the assay was terminated by the addition of citric acid at 45 minutes to ensure linear kinetics.

[2] = molecular target: cellular retinoic acid binding protein (CRABP) from chick embryo skin; assay: CRABP binding assay, I50 (dextran-coated charcoal); settings: 50% inhibition of binding of 100 pmoles [3H] retinoic acid to CRABP, chick embryo skin extract (1 mg protein); X=CO2H
Method: A standard in vitro cellular retinoic acid binding protein (CRABP) assay was also conducted on the retinoids. The CRABP binding study measured the ability of retinoids to compete for the retinoic acid binding site on CRABP, also a good indicator of retinoid potency as a chemopreventive agent.
(§1) Aliquots (2 mg protein) of chick skin extracts were incubated with 300 pmoles of [^3 H] retinoic acid in the presence or absence of 100-fold molar excesses of the test compounds. The 2S CRABP peaks were determined from the radioactivity profiles obtained after sedimentation through 5 to 20% sucrose density gradients at 180,000×g for 18 hours (Sani et al., supra). […] Free radioactive retinoid was removed by absorption on dextran-coated charcoal. The I50 values of the test compounds were derived from the semilog plots of their molar concentrations versus the specifically bound [^3 H] retinoic acid to CRABP at the different concentrations of the test retinoids.

chick embryo skin CRABP = assay: CRABP competition by sucrose density gradient sedimentation, 100-fold excess of retinoid; format: binding; settings: 100-fold molar excess of test compound, 300 pmol [3H] retinoic acid, FIG. 1
Method: as §1

mouse skin papilloma = assay: Mouse papilloma assay (tumor formation after DMBA initiation); format: in vivo; settings: initiation with DMBA, X=CO2H
Text: This assay measured the inhibition of tumor formation following initiation with dimethylbenz(a)anthracene (DMBA).

| Structure (SMILES) | ODC Assay (nmol CO2/30 min./mg protein) [1] | IC50 [2] [µM] | inhibition of [3H] retinoic acid-binding to CRABP (relative binding affinity as compared to retinoic acid) (chick embryo skin CRABP) [%] | tumor production, % of controls (mouse skin papilloma) |
| --- | --- | --- | --- | --- |
| CC1=C(C(C)C)/C(=C/C(C)=C\C=C\C(C)=C\C(=O)O)CCC1 [(9Z)-7] | > 100 nmol CO2/30 min./mg protein | 2.8 | 0 | – |
| CC1=C(C(C)C)/C(=C/C(C)=C\C=C\C(C)=C/C(=O)O)CCC1 [(9Z,13Z)-7] | > 100 nmol CO2/30 min./mg protein | 4.9 | 0 | – |
| CC1=C(C(C)C)/C(=C/C(C)=C/C=C/C(C)=C\C(=O)O)CCC1 [(13Z)-7] | 1.0 nmol CO2/30 min./mg protein | 0.5 | 70 | – |
| CC1=C(C(C)C)/C(=C/C(C)=C/C=C/C(C)=C/C(=O)O)CCC1 [(all E)-7] | 0.5 nmol CO2/30 min./mg protein | 0.4 | 100 | 20 % of controls |
| CC1=C(/C=C/C(C)=C/C=C/C(C)=C/C(=O)O)C(C)(C)CCC1 [all-E retinoic acid, reference compound] | 0.5 nmol CO2/30 min./mg protein | 0.9 | 100 | 11 % of controls |
